# What was measured:
# USP8CD = target: T1, USP8CD (Homo sapiens, UniProt P40818); assay: Reversibility (dilution / gel filtration) assay of USP8 inhibition; assay type: biochemical; details: USP8CD 60 nM, activity before and after gel column filtration
# T1 construct: an in-house purified catalytic domain of USP8 (USP8CD) was used at a concentration of 80 nM; made in house
# T1 sequence (P40818 777-1109 limits assumed): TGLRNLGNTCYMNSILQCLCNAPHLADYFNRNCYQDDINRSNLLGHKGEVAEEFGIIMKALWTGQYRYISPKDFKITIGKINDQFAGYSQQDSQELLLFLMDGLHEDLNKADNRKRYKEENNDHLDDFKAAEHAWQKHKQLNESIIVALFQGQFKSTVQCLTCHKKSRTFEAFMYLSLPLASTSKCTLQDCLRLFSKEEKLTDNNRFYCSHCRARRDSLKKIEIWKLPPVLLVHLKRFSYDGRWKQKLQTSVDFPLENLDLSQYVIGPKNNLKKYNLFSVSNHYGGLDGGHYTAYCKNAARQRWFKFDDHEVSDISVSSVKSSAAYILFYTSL
# Protocol: DUB activity relies on a conserved catalytic cysteine residue which is particularly sensitive to irreversible oxidation by reactive oxygen species (ROS) (Lee et al., 2013). […] In this setup, purified USP8CD was used at a concentration of 60 nM and incubated for 20 min with either the inhibitory compound or with DMSO in buffered conditions. The catalytic activity of each mix was monitored on Ub-Rho substrate (Ubiquigent ref. 60-0117-050) used at a final concentration of 0.1 μM before and after filtration on a gel column (Millipore UFC30GV25). If a catalytic activity is detected after column filtration, the compound is a reversible inhibitor.
# Papain = target: T2, Papain (Carica papaya, UniProt P00784); assay: Papain inhibition (casein digestion, SDS-PAGE); assay type: biochemical
# T2 construct: purchased Sigma P4762
# T2 sequence (P00784 134-345): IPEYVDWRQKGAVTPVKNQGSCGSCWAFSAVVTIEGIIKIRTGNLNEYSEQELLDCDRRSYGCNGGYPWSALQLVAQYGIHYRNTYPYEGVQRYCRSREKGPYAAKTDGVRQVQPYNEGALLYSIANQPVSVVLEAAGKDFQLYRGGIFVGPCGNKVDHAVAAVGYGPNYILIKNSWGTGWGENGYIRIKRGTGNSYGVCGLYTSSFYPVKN
# Protocol: Papain (Sigma ref. P4762) and casein (Merck ref. VM874644) were dissolved in 40 mM TrisHCl buffers pH6.8 and pH9.5 respectively. Casein at the concentration of 0.5 μg/μl was incubated with the inhibitory compounds at efficient inhibitory concentration or with DMSO for 15 min and then digested by Papain (2.5 ng/μl) at RT over 45 min. The digestion samples were collected at time: 5, 15, 30 and 45 min. To inactivate the protease Laemmli 2× was added and each sample was heated at 95° C. for 5 min then analyzed with SDS-PAGE and stained with Coomassie Blue.
# POMC gene = assay: POMC encoding gene expression (quantitative RT-PCR, normalized to HPRT); assay type: cell-based, mouse; details: 10, 20, 30 and 36 μM, 24 hours, vs DMSO
# Protocol: Each dot represents the amount of POMC encoding transcripts normalized to the amount of transcripts encoding the housekeeping gene HPRT and then compared to the DMSO control condition. Mean of technical triplicates with errors bars.
# ACTH production depends on the activation of the proopiomelanocortin (POMC) gene encoding the ACTH precursor.
# 3.75×10^5 AtT20 cells were seeded on polylysine-coated 6-well culture microplates on 2.4 mL complete medium. After 24 hours, cells were treated with stock compounds to a final DMSO concentration of 0.5%. After 24 hours of treatment, cells were briefly rinsed with 37° C. DPBS (no calcium, no magnesium modification), lysed with the LBP reagent from the NucleoSpin® RNA Plus kit (Macherey-Nagel 740984.50) and then frozen at −70° C. before continuing with the RNA extraction protocol as per manufacturer's instructions. 1 μg RNA was used to synthesize cDNA using the AffinityScript QPCR cDNA Synthesis Kit (Agilent #600559). qPCR reaction was performed using the primers against the mouse POMC gene (5′-CCTCCTGCTTCAGACCTCCATAGAT-3′ and 5′-GTCTCCAGAGAGGTCGAGTTT). […] Detection was done using the Brilliant II SYBR® Green QPCR Master Mix (Agilent #600828), and readings were done using a Stratagene Mx3005P equipment.
compound,measurement,setting,value
"Cc1cc(C(C#N)c2ccc(Cl)cc2)c(Cl)cc1NC(=O)c1cc(I)cc(I)c1O (stereo not drawn) [Closantel, reference compound]",reversibility of USP8 inhibition,USP8CD,reversible
same,activity against papain,Papain,not active
same,POMC mRNA species (FIG. 8),POMC gene,strong decrease

# Reference: patent US20260207535A1, “CRIBLAGE INHIBITEURS USP8” (COMMISSARIAT A L'ENERGIE ATOMIQUE ET AUX ENERGIES …, priority 2022, published 2026)
